Where a name gives a salt, the structure may show the parent alone.
Experiments:
[1] = biological target: T1, cellular TDO2 in HEK293-TDO2 cells (Homo sapiens, UniProt P48775); experiment: 293-TDO2 cell-based assay (Kyn colorimetric); conditions: 48 hours of incubation
T1 construct: expressed in transfected cells; host or cells: HEK293 (ATCC), stably transfected
Procedure, shortened: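 Kyn formed from L-Trp was read colorimetrically at 480 nm (TCA deproteinisation, then 2% 4-(dimethylamino)benzaldehyde). Compounds were added to 293-TDO2 cells 4 h post-seeding and left 48 h at 37° C. A four-parameter logistic model gave IC50 values.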

[2] = biological target: T2, IDO1 (Homo sapiens, UniProt P14902); experiment: IDO1 enzymatic assay; format: biochemical; design: His tag (N); made in house; host or cells: E. coli; conditions: read-out: Enzyme IC50 IDO1
Procedure, shortened: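 Compound was incubated with 50 nM His-tagged IDO1 from E. coli, 1.3 mM D-tryptophan, 5 mM L-ascorbic acid, methylene blue and 0.4 mg/mL catalase in 50 mM potassium phosphate pH 7.5, 0.1% BSA, at 24 °C for 1.5 hours. Activity was the slope of N'-formylkynurenine formation read continuously at 321 nm for 1 hour. IC50 was obtained from remaining activity versus compound concentration.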

[3] = biological target: T2, IDO1; experiment: Hela cell-based IDO1 assay; conditions: Hela cells
Procedure, shortened: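 HeLa cells were seeded at 8000 per well in 96-well plates in phenol red-free DMEM with 10% FBS. After 4 hours, DMSO-diluted compound dilutions were added with IFN-γ (final 100 ng/mL) and 0.4 mM L-Trp, and cells were kept 48 hours at 37 °C, 5% CO2. Supernatant was deproteinised with trichloroacetic acid, and kynurenine was measured at 480 nm after adding 2% 4-(dimethylamino)benzaldehyde. Potency came from four-parameter logistic fits in XLfit.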

T1 sequence (P48775 whole entry): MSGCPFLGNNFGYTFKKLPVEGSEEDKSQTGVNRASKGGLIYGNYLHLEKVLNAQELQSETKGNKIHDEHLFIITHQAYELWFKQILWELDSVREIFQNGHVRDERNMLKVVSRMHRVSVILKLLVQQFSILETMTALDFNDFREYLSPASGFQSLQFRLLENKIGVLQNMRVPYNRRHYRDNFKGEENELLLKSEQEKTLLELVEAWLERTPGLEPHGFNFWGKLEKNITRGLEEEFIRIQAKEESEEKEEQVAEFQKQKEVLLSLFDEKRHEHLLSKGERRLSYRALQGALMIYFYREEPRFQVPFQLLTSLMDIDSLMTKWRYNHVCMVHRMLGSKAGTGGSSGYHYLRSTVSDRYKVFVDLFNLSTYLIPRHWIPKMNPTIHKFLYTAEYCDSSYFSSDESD
T2 sequence (P14902 whole entry): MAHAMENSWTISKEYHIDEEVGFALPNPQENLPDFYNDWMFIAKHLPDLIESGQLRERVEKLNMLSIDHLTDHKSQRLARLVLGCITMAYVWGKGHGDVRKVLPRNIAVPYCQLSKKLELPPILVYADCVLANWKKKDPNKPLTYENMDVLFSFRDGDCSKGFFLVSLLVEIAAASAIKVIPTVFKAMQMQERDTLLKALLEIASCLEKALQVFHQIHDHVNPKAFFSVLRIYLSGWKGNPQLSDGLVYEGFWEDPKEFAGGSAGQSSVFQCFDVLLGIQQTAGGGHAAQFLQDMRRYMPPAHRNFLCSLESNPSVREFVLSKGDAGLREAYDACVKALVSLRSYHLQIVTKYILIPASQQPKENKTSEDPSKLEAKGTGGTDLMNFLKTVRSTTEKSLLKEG

Row | EC50 [1] [nM] | IC50 [2] [nM] | EC50 [3] [nM] | SMILES
1 | > 10000 | 17 | 80 | COc1ccc([C@H]2CC[C@H](C(O)c3c(C4CC4)ccc4cncn34)CC2)cc1Cl (single isomer, unassigned) [Example D148a, hydrochloride]
2 | > 10000 | 19 | 127 | O[C@H](c1c(C2CC2)ccc2cncn12)[C@H]1CC[C@H](c2ccc(Cl)c(F)c2)CC1 (single isomer, unassigned) [Example D128a]
3 | > 10000 | > 10000 | > 10000 | Cc1ccc([C@H]2CC[C@H]([C@@H](O)c3c(C4CC4)ccn4cncc34)CC2)cc1 (single isomer, unassigned) [Example C110b]
4 | > 10000 | 26 | 14 | CC(C)c1ccc2cncn2c1[C@@H](O)[C@H]1CC[C@H](c2ccc(F)cc2)CC1 (single isomer, unassigned) [Example D166a]
5 | > 10000 | 39 | 51 | OC(c1c(C2CC2)ccn2cncc12)C1CCC(c2ccnc3ccc(F)cc23)CC1 (stereo not drawn) [Example C128, (7-cyclopropylimidazo[1,5-a]pyridin-8-yl)(4-(6-fluoroquinolin-4-yl)cyclohexyl)methanol]
6 | > 10000 | 1700 | 2100 | O[C@@H](c1c(C2CC2)ccc2cncn12)[C@H]1CC[C@H](c2ccc(F)c3ccccc32)CC1 (single isomer, unassigned) [Example D137b]
7 | > 10000 | 40 | 64 | OC(c1c(C2CC2)ccc2cncn12)C1CCC(c2ccc(F)c(F)c2)CC1 (stereo not drawn) [Example D126, (6-cyclopropylimidazo[1,5-a]pyridin-5-yl)(4-(3,4-difluorophenyl)cyclohexyl)methanol]
8 | > 10000 | > 10000 | 6520 | O[C@@H](c1c(C2CC2)ccc2cncn12)[C@H]1CC[C@H](c2ccc(F)c(F)c2)CC1 (single isomer, unassigned) [Example D126b]
9 | > 10000 | 1400 | 1100 | O[C@@H](c1c(C2CC2)ccc2cncn12)[C@H]1CC[C@H](c2ccnc3ccc(F)cc32)CC1 (single isomer, unassigned) [Example D150b]
10 | > 10000 | 29 | 30 | OC(c1c(C2CC2)ccn2cncc12)C1CCC(c2cccc3ncccc23)CC1 (stereo not drawn) [Example C126, (7-cyclopropylimidazo[1,5-a]pyridin-8-yl)(4-(quinolin-5-yl)cyclohexyl)methanol]
11 | > 10000 | 12 | 7.7 | O[C@H](c1c(C2CC2)ccc2cncn12)C1CCN(c2ccc(F)c3ncccc23)CC1 (single isomer, unassigned) [Example D175a]
12 | > 10000 | 33 | 51 | OC(c1c(C2CC2)ccn2cncc12)C1CCC(c2ccnc3c(F)cccc23)CC1 (stereo not drawn) [Example C129, (7-cyclopropylimidazo[1,5-a]pyridin-8-yl)(4-(8-fluoroquinolin-4-yl)cyclohexyl)methanol]
13 | > 10000 | 31 | 75 | OC(c1c(C2CC2)ccc2cncn12)C1CCC(c2ccc3ncccc3c2)CC1 (stereo not drawn) [Example D157, (6-cyclopropylimidazo[1,5-a]pyridin-5-yl)(4-(quinolin-6-yl)cyclohexyl)methanol]
14 | > 10000 | 31 | 1020 | OC(c1c(C2CC2)ccc2cncn12)C1CCN(c2ccc3ncncc3c2)CC1 (stereo not drawn) [Example D181, (6-cyclopropylimidazo[1,5-a]pyridin-5-yl)(1-(quinazolin-6-yl)piperidin-4-yl)methanol]
15 | > 10000 | 30 | 68 | Oc1ccc(C2CCC(C(O)c3c(C4CC4)ccc4cncn34)CC2)cc1 (stereo not drawn) [Example D106, 4-(4-((6-cyclopropylimidazo[1,5-a]pyridin-5-yl)(hydroxy)methyl)cyclohexyl)phenol]
16 | > 10000 | 8000 | 6410 | O[C@@H](c1c(C2CC2)ccc2cncn12)[C@H]1CC[C@H](c2cc(F)cc(F)c2)CC1 (single isomer, unassigned) [Example D144b]
17 | > 10000 | 43 | 50 | Oc1ccccc1C1CCC(C(O)c2c(C3CC3)ccc3cncn23)CC1 (stereo not drawn) [Example D112, 2-(4-((6-cyclopropylimidazo[1,5-a]pyridin-5-yl)(hydroxy)methyl)cyclohexyl)phenol]
18 | > 10000 | 18 | 15 | CC(C)c1ccc2cncn2c1[C@@H](O)[C@H]1CC[C@H](c2cccc(F)c2)CC1 (single isomer, unassigned) [Example D167a]
19 | > 10000 | 16 | 18 | O[C@H](c1c(C2CC2)ccc2cncn12)[C@H]1CC[C@H](c2ccnc3ccc(F)cc32)CC1 (single isomer, unassigned) [Example D150a]
20 | > 10000 | 40 | 170 | OC(c1c(C2CC2)ccc2cncn12)C1CCC(c2ccc(F)cc2F)CC1 (stereo not drawn) [Example D127, (6-cyclopropylimidazo[1,5-a]pyridin-5-yl)(4-(2,4-difluorophenyl)cyclohexyl)methanol]
21 | > 10000 | 32 | 40 | Oc1cccc(C2CCC(C(O)c3c(C4CC4)ccc4cncn34)CC2)c1 (stereo not drawn) [Example D142, 3-(4-((6-cyclopropylimidazo[1,5-a]pyridin-5-yl)(hydroxy)methyl)cyclohexyl)phenol]
22 | > 10000 | 39 | 206 | OC(c1c(C2CC2)ccc2cncn12)C1CCC(c2ccc(OC3COC3)cc2)CC1 (stereo not drawn) [Example D109, (6-cyclopropylimidazo[1,5-a]pyridin-5-yl)(4-(4-(oxetan-3-yloxy)phenyl)cyclohexyl)methanol]
23 | > 10000 | 43 | 2320 | OC(c1cc(Cl)cc2cncn12)C1CCC(c2cccc3ccccc23)CC1 (stereo not drawn) [Example E103, (7-chloroimidazo[1,5-a]pyridin-5-yl)(4-(naphthalen-1-yl)cyclohexyl)methanol]
24 | > 10000 | 5400 | > 10000 | O[C@@H](c1c(C2CC2)ccn2cncc12)[C@H]1CC[C@H](c2ccccc2C(F)(F)F)CC1 (single isomer, unassigned) [Example C116b]
25 | > 10000 | > 10000 | 9370 | OC(c1c(C2CC2)ccc2cncn12)[C@H]1CC[C@H](c2ccc(F)cc2Cl)CC1 (single isomer, unassigned) [Example D130b]
26 | > 10000 | 54 | 462 | O=Cc1ccc(C2CCC(C(O)c3c(C4CC4)ccc4cncn34)CC2)cc1 (stereo not drawn) [Example D123, 4-(4-((6-cyclopropylimidazo[1,5-a]pyridin-5-yl)(hydroxy)methyl)cyclohexyl)benzaldehyde]
27 | > 10000 | 5100 | > 10000 | O[C@@H](c1c(C2CC2)ccn2cncc12)[C@H]1CC[C@H](c2ccc(F)cc2)CC1 (single isomer, unassigned) [Example C107b]
28 | > 10000 | 130 | 1100 | Oc1ccc(N2CCC(C(O)c3c(C4CC4)ccn4cncc34)CC2)cc1 (stereo not drawn) [Example C143]
